For 92 molecules, melting point results are on record in a melting point compilation (Tetko et al.; mined from patent text by program, amines drawn as free bases though some values may be those of a salt).

Some results are limits rather than exact numbers.

On to `CCCCNc1cc(CN(Cc2ccccc2)C(=O)OCC)cc(S(N)(=O)=O)c1Oc1ccccc1`, for which the melting point (commonly the temperature of the solid-liquid transition) fell in the range of 82 to 83 °C.
The molecule `COC(=O)c1ccc2occ(-c3ccc(SC)c(Cl)c3)c2c1` had a melting point of 115 to 116 °C.
For `NC(=O)c1c(Cl)c(-c2ccccc2)n2c1CN(C(=O)Cc1cccs1)CC2`, the melting point was 225 to 229 °C.
Take `O=C(O)C(=O)N1CCC(Cc2ccc(Cl)cc2)CC1`: the melting point fell in the range of 147 to 148 °C.
As for `Cc1nc(Cc2ccc([N+](=O)[O-])cc2)sc1C`, the figure is 93 to 94 °C; as for `O=c1c(OCCO)c(-c2ccc(OCc3ccccc3)c(OCc3ccccc3)c2)oc2cc(OCc3ccccc3)ccc12`, 137 °C.
For the molecule `Cc1cc(-c2ccc(Cl)cc2)n(-c2ccc(S(N)(=O)=O)cc2)c1`, the melting point was 196 to 198 °C.
In turn, `CCSC(=S)SC1NC(=O)C1C(C)C` (configuration not stated) returned a melting point of 65 to 66 °C.
As for `COc1ccc(S(=O)(=O)Nc2ccccc2NC(=S)c2ccc(F)cc2)cc1`, the figure is 155 to 156 °C; as for `CCCCCCCCCC(=O)Nc1cc(C(=O)O)c2cc[nH]c2c1`, 248 to 250 °C.
Molecule `CCOC(=O)c1cnc2nc(C=CC(N)=O)c(OCC)cc2c1Nc1ccc(OC)cc1` had a melting point of 238 to 242 °C.
As for `CCOC(=O)c1c(C)nn2c(-c3ccc(Cl)cc3Cl)c(C)ccc12`, the figure is 120 to 124 °C; as for `C/C(Cl)=C/CC(C(=O)O)C(=O)O`, 95 to 97 °C.
Consider `O=[N+]([O-])c1ccc(CN2CC=C(/C=C/c3ccccc3)CC2)cc1`, for which the melting point lay in the range of 142 to 144 °C.
As for `CN1CCn2nc(Nc3cc(Cl)nn(COCC[Si](C)(C)C)c3=O)cc2C1`, the figure is 68 to 69 °C.
In the case of `NC(=O)c1ccc(F)c(Br)c1` it was 131 to 133 °C.
`OC1CN(CCC#Cc2ccccc2)CCC1c1cccc(C(F)(F)F)c1` (configuration not stated) showed a melting point of 77 to 79 °C.
In turn, `CC(C)=Cc1ccc(-c2ccc(C(CC3CCOCC3)c3ccc(S(=O)(=O)C4CC4)cc3)[nH]2)nc1` (configuration not stated) had a melting point of 114 to 116 °C.
In the case of `O=C(NCc1ccccc1)c1cc(N2CCN(Cc3ccc(F)cc3)C2=O)n[nH]1` it was 262 to 263 °C.
For the molecule `COc1ccc(-c2cn(-c3cccc(OCCCl)c3)c3ncnc(N)c23)cc1OCc1ccccc1`, the melting point amounted to 170 °C.
In turn, `COc1cccc2c1c(C)c(CCC(=O)O)n2Cc1ccc(Cl)cc1` came in with a melting point of 145 °C.
As for `CCC1C=CCCC1C(O)C(N)=O` (configuration not stated), the figure is 156 to 158 °C; as for `CCS(=O)(=O)CCC(=O)NNC(=O)N1Cc2ccccc2Oc2ccc(C#N)cc21`, 188 to 190 °C.
In the case of `CC(C)(C)C(COC(N)=O)(NC(=O)c1ccccc1)c1c[nH]c2ccc(Br)cc12` (configuration not stated) it was 187 °C; in that of `N#Cc1cnc(Nc2ccc(OCCn3ccnn3)cc2)nc1-c1ccccc1`, 178 °C.
As for `Cc1cc(O)nc(Oc2cc(C(F)(F)F)nn2C)c1`, the melting point came to 159 °C.
With `CC(C)C(N)C(O)COc1ccccc1C1=NNC(=O)CC1` (configuration not stated), the melting point is 124 to 126 °C.
In the case of `CCCCCNC(=O)CC(=O)O` it was 67.5 to 68.5 °C; in that of `CCOP(=O)(OCC)C(c1ccc2cc(O)ccc2c1)P(=S)(OCC)OCC` (configuration not stated), 85.5 to 86.5 °C.
In the case of `CCOC(=O)c1cccc(NC(=O)CN2C(=O)c3ccccc3C2=O)c1` it was 215 °C; in that of `CNc1ccc(-c2cc[nH]n2)cc1`, 78 to 86 °C.
In the case of `CC(=O)c1ccc(C(=O)N2Cc3ccnn3Cc3ccccc32)cc1` it was 201 to 210 °C.
`Cc1nc2ccccc2n1Cc1ccc(C(=O)O)cc1` returned a melting point of 300 °C.
`COC(=O)Cn1c(C)cc(Sc2ccccc2)c(N)c1=O` came in with a melting point of 65 to 66 °C.
In the case of `CN1C(=O)C2CC(c3ccc([N+](=O)[O-])cc3)(C2)C1=O` it was 185 to 188 °C; in that of `Cc1cccc2ncc(C(=O)NC3CC3)c(=O)n12`, 174 to 176 °C; in that of `COc1ccc(NC(=N)c2cccs2)cc1CO`, 191 to 192 °C.
`CCN(C(=O)C1CCC1)c1cccc(-c2ccc3nnc(C)n3n2)c1` had a melting point of 157 to 159 °C.
In turn, `c1ccc2c(c1)SCCc1c-2n(CCN2CCCCC2)c2ccccc12` yielded a melting point of 118 °C.
As for `C=CS(=O)(=O)N1CCC[C@H]1C(=O)OC(C)(C)C`, the figure is 84 to 87 °C.
As for `C=Cc1ccc(CSCCNC(=O)COCC(=O)O)cc1`, the figure is 44.5 to 46 °C.
In the case of `Cc1ccc(C)n1CCNC(=O)Nc1ccc(C(=O)O)cc1` it was 248 to 250 °C; in that of `COc1cccc2[nH]cc(C3CN4CCC3CC4)c12` (configuration not stated), 193 to 195 °C.
As to `COc1ccc(C(Sc2ccc3ccccc3c2N)C(O)C(=O)O)cc1` (configuration not stated), the melting point was 160 to 161 °C.
As for `NN1C=NNC1=Cc1ccccc1O`, the figure is 210 to 212 °C; as for `CCOC(=O)Oc1ncc(F)c(N=CN(C)C)n1`, 124 to 126 °C.
In the case of `O=C(O)/C=C(/c1ccccc1)c1ccc2ccccc2c1` it was 170 to 172 °C; in that of `CCc1c(C(=O)O)nn(-c2ccc(Cl)cc2Cl)c1-c1ccc(Br)cc1`, 218 °C; in that of `Nc1ccc(F)c(F)c1NC(=S)Nc1c(Cl)cccc1Cl`, > 310 °C.
In the case of `O=C(Cc1ccc(C(F)(F)F)cn1)c1ccc(Cl)cc1` it was 114 to 116 °C; in that of `Fc1ccc(-c2nc[nH]c2-c2ccc(F)cc2)cc1`, 234 to 236 °C.
The molecule `CCCCC(=O)/C=C/c1ccccc1` returned a melting point of 32 to 32.5 °C.
In the case of `CS(=O)(=O)c1cnc(-c2nn(Cc3ccccc3F)c3ncccc23)nc1N` it was 272 °C.
As for `Cc1nn(C)c(C)c1NC(=S)n1ccc2cc(Cl)ccc21`, the figure is 165 to 166 °C; as for `CC(=O)NC[C@H]1CN(c2ccc(N3CCC(Cc4nnn[nH]4)CC3)c(F)c2)C(=O)O1`, 164 to 166 °C.
In the case of `NS(=O)(=O)c1ccc(NN=C2C(=O)Nc3cc4c(cc32)OCO4)cc1` it was > 220 °C; in that of `Cn1c(=N)c(F)cn(S(=O)(=O)c2ccccc2)c1=O`, 144 °C.
`O=C(Nc1ccc(C(=O)N2C[C@@H]3CCCN3C(=O)c3ccccc32)cc1)c1ccccc1-c1ccccc1`: the melting point lay in the range of 233 to 235 °C.
As for `O=C(O)c1ccc(CN([C@@H](CO)c2ccccc2)S(=O)(=O)c2ccc(Cl)cc2)cc1`, the figure is 85 to 87 °C; as for `COc1ccc(Sc2cccc(C(=O)O)c2)cc1`, 121 to 123 °C; as for `C=CCc1cc2c(cc1O)CC(CCc1ccccc1)O2` (configuration not stated), 79 to 80 °C.
In the case of `O=C1c2ccccc2C(=O)c2c1c(Br)n1c2Cc2ccccc2C1` it was > 320 °C.
For the molecule `CC(C)N(C)C(=O)C(Cc1ccc(C=O)cc1)NC(=O)OC(C)(C)C` (configuration not stated), the melting point was found to be 122 °C.
In the case of `CC(C(=O)NN)c1cn[nH]c1-c1ccc(-c2ccccc2)cc1O` (configuration not stated) it was 138 to 141 °C; in that of `CSc1ccc(C(=O)Cc2ccccc2)cc1F`, 71 to 72 °C.
The molecule `O=[N+]([O-])c1cnccc1NCCN1CCC(Nc2nc3ccccc3n2Cc2ccc(CO)o2)CC1` gave a melting point of 191 °C.
In the case of `COc1ccc(/C=C/c2nc3c([nH]2)c(=O)n(C)c(=O)n3C)c(C)c1C` it was > 275 °C; in that of `Cn1c2ccc(Cl)cc2c2cc(C(=O)N3CCOCC3)sc21`, 178 to 182 °C.
In the case of `CC(C)c1ccc2c(c1)OCc1ccc(C#N)cc1C2=O` it was 101 to 108 °C; in that of `Cc1ccc2[nH]cc(C3=C(Br)C(=O)N(C)C3=O)c2c1`, 158 to 159 °C.
As for `OCc1c(Cl)nc(C2CCCC2)n1Cc1ccccc1`, the melting point is 102 to 103 °C.
As to `COc1cccc2c1OC(COS(=O)(=O)c1ccc(C)cc1)C2` (configuration not stated), the melting point fell in the range of 98 to 103 °C.
As for `COc1ccccc1N1CCN(CCCNC(=O)c2cccc3c(=O)c(C)c(C4CCCC4)oc23)CC1`, the figure is 135 to 137 °C; as for `Oc1ccc([C@H]2CC[C@H](CCC3OCCO3)CC2)cc1`, 154 °C.
As for `O=C1Nc2cc(C(F)(F)F)ccc2S(=O)(=O)c2ccccc21`, the figure is 253 to 254 °C; as for `COc1ccnc(N2CCN(Cc3ccc(C(C)NC(C)=O)cc3)CC2)n1` (configuration not stated), 113 to 115 °C.
`CCC(=O)N[C@H]1CC[C@H](CCN2CCC(c3cccc4c3CCO4)CC2)CC1` displayed a melting point of 192 °C.
In the case of `Nc1nc(-c2ccccc2OCC(F)(F)F)[nH]c(=O)c1N=O` it was 210 to 212 °C; in that of `O=C(CNc1ccc(F)cc1)N1CCN2C(=O)OC(c3ccccc3)(c3ccccc3)C2C1` (configuration not stated), 203 to 204 °C; in that of `COc1cc2nc(SCc3ncc(C)c(N(C)C)c3Cl)[nH]c2cc1OC`, 120 to 122 °C.
As to `c1coc(C2=Nc3ccccc3N3CCc4cccc2c43)c1`, the melting point was in the range of 144 to 146 °C.
`CC(=O)c1cc(Br)c(OP(=O)(O)O)c(Br)c1`: the melting point lay in the range of 149 to 154 °C.
In the case of `CC(=O)Nc1sc(-c2ccc(F)cc2)cc1C(N)=O` it was 230 to 233 °C; in that of `CCOC(=O)c1cc(NCc2c(C)cccc2C)c2nc(C)n(OC)c2c1`, 165 to 166 °C.
Regarding `O=c1[nH]c2cc(Cl)cc(Cl)c2c(=O)n1Cc1ccc([N+](=O)[O-])cc1`, the melting point was 227 to 230 °C.
Take `Cn1c(SCCO)nnc1SCCO`: the melting point was in the range of 87 to 88 °C.
As for `CCN1CCN(Cc2nc3sc(C)c(C)c3c(=O)n2-c2ccccc2Cl)CC1`, the figure is 126 to 129 °C.
In the case of `Cc1noc(-c2cccc(C3=Nc4ccc(-c5ccc(F)cc5)cc4NC(=O)C3)c2)n1` it was 266 to 268 °C; in that of `CCOC(=O)c1cc2cc(N(CC)C(C)=O)ccc2[nH]1`, 149 to 150 °C; in that of `O=C(Nc1cccc(Br)c1)N(Cc1ccccc1)Cc1ccccc1`, 102 to 103 °C.
For the molecule `Ic1cccc(C=Cc2ccccc2)c1`, the melting point was 96 °C.
Molecule `CN(C)C(=O)COc1cccc(C=Cc2ccc3ccccc3n2)c1` came in with a melting point of 104 to 106 °C.
